Test results as given in US10870647B2, “Imidazopyridine derivative, method for preparing same, and pharmaceutical composition containing same as active ingredient for preventing or treating cancer” (DAEGU-GYEONGBUK MEDICAL INNOVATION FOUNDATION, priority 2016, dated 2020).

How the values were obtained:
Assay in all cases: Kinase selectivity, scanMAX Kinase assay panel (DiscoverX), % control at 1 uM
Type in all cases: binding
[1] = target: T1, scanMAX Kinase assay panel (Homo sapiens, UniProt O94804); details: LOK; 1 uM; read-out: Percent Control (%)
T1 construct: purchased DiscoverX
Outline: (§1)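 Binding across the scanMAX kinase panel was tested at 1 uM compound. % control = (compound − positive control)/(negative control − positive control) × 100; below 35 counted as active.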

[2] = target: T2, scanMAX Kinase assay panel (Homo sapiens, UniProt P25098); details: GRK2; 1 uM; read-out: Percent Control (%)
T2 construct: purchased DiscoverX
T2 sequence (P25098 1-689): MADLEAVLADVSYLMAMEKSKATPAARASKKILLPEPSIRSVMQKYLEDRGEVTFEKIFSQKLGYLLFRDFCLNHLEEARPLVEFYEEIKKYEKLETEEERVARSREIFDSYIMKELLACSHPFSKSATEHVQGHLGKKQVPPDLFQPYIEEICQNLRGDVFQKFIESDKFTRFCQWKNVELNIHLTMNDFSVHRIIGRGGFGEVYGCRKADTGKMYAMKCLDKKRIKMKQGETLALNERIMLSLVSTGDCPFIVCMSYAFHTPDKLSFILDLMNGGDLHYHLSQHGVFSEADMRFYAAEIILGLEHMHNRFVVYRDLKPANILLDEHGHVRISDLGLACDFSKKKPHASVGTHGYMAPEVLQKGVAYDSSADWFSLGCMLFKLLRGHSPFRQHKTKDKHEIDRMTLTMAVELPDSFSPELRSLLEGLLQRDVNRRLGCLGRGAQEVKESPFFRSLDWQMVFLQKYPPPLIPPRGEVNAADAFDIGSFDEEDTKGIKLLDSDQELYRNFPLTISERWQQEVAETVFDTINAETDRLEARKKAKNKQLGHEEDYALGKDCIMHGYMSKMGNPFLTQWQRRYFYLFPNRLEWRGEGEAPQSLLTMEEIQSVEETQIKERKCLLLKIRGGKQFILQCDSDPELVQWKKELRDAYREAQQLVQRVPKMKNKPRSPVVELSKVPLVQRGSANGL
Outline: as §1

[3] = target: T3, scanMAX Kinase assay panel (Homo sapiens, UniProt P29376); details: LTK; 1 uM; read-out: Percent Control (%)
T3 construct: purchased DiscoverX
Outline: as §1

[4] = target: T4, scanMAX Kinase assay panel (Homo sapiens, UniProt P41240); details: CSK; 1 uM; read-out: Percent Control (%)
T4 construct: purchased DiscoverX
Outline: as §1

[5] = target: T5, scanMAX Kinase assay panel (Homo sapiens, UniProt P42680); details: TEC; 1 uM; read-out: Percent Control (%)
T5 construct: purchased DiscoverX
T5 sequence (P42680 1-631): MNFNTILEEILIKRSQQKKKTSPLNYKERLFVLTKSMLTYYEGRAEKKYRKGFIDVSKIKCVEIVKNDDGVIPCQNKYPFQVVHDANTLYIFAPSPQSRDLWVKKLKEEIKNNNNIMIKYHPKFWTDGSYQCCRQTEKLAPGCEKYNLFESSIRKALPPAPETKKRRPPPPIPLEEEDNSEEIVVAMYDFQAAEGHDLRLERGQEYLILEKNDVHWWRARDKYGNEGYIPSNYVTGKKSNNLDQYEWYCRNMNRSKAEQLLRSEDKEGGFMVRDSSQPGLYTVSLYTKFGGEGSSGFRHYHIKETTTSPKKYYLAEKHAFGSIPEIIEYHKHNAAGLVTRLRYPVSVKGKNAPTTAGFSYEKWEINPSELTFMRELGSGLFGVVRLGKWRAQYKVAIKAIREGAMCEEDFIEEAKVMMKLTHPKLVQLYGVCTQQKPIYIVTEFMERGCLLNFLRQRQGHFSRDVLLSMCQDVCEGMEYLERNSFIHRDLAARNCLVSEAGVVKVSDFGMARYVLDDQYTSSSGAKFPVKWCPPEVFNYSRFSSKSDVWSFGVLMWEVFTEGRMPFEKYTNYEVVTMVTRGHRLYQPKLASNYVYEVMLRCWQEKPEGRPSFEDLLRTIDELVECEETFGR
Outline: as §1

[6] = target: T6, scanMAX Kinase assay panel (Homo sapiens, UniProt Q02156); details: PRKCE; 1 uM; read-out: Percent Control (%)
T6 construct: purchased DiscoverX
T6 sequence (Q02156 1-737): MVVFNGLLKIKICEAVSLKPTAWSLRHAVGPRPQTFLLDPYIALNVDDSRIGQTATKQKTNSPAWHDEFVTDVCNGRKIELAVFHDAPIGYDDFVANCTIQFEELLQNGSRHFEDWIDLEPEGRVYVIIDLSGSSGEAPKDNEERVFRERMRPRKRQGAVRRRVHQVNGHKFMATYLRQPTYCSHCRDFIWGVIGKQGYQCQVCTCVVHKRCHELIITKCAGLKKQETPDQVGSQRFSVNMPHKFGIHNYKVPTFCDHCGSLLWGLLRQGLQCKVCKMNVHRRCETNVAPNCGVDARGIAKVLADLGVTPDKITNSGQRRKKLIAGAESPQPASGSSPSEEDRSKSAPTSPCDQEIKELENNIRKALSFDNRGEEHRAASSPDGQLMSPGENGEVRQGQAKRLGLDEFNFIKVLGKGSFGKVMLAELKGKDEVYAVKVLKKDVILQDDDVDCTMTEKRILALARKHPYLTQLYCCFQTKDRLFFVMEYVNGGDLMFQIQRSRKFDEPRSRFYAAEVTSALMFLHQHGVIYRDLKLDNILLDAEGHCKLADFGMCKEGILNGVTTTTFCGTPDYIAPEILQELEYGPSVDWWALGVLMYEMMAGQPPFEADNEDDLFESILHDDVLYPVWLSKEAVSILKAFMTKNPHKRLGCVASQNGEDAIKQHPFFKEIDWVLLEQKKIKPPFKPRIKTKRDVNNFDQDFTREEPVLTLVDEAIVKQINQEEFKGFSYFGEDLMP
Outline: as §1

[7] = target: T7, scanMAX Kinase assay panel (Homo sapiens, UniProt Q52WX2); details: SBK1; 1 uM; read-out: Percent Control (%)
T7 construct: purchased DiscoverX
Outline: as §1

T3 sequence (P29376 17-864): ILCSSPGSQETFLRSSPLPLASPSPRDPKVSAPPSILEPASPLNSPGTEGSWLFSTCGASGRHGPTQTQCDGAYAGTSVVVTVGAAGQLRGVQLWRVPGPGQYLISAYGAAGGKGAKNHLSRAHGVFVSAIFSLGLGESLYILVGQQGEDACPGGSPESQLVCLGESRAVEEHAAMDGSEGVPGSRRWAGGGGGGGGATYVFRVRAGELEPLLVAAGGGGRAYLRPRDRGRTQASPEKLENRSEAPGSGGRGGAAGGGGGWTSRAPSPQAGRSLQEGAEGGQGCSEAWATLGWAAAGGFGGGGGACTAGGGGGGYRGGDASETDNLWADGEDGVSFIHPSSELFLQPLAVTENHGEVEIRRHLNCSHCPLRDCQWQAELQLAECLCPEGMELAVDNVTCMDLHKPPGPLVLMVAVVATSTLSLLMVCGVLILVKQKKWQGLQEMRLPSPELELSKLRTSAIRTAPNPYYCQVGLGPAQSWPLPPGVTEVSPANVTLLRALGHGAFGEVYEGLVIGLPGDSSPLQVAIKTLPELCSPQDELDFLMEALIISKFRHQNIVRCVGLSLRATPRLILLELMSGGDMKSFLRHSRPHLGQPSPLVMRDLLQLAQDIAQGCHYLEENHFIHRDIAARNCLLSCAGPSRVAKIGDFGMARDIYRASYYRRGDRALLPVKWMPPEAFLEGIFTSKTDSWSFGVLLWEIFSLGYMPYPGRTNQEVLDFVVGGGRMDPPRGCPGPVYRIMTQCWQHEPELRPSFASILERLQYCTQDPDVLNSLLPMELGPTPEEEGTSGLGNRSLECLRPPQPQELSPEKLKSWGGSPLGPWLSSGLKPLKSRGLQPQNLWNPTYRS
T1 sequence (O94804 whole entry): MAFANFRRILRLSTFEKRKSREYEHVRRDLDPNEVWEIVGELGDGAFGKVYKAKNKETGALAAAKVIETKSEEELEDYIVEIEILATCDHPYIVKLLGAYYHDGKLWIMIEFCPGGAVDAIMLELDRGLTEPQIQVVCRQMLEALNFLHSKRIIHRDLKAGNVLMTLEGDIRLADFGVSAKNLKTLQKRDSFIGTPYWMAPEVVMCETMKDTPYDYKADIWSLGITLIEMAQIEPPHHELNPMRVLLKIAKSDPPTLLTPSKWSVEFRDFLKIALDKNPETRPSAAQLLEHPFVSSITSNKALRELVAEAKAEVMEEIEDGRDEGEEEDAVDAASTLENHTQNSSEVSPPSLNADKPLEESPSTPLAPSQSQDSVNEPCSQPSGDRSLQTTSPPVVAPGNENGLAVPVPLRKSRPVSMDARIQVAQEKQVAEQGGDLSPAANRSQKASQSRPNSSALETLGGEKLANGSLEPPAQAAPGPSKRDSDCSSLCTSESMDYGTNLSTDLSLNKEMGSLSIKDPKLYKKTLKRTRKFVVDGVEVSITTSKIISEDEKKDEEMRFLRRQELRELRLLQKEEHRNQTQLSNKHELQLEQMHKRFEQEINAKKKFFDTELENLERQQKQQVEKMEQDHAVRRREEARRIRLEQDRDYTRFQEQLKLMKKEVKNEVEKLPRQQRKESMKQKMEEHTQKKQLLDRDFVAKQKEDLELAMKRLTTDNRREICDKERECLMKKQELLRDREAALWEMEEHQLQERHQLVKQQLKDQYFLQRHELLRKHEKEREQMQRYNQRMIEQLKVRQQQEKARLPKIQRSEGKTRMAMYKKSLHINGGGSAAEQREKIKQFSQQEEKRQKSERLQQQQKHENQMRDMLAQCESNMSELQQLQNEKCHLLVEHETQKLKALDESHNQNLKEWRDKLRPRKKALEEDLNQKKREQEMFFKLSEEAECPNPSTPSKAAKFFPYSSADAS
T7 sequence (Q52WX2 whole entry): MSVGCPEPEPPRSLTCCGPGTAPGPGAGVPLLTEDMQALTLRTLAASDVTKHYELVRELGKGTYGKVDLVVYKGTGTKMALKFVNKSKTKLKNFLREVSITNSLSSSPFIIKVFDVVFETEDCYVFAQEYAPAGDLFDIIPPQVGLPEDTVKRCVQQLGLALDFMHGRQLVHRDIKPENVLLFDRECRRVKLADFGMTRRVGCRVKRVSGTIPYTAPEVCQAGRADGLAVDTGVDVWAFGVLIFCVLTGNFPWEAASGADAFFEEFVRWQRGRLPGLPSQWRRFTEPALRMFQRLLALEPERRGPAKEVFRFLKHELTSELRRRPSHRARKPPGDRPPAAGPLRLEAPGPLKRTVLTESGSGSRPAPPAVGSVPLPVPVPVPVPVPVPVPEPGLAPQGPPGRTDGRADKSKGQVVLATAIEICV
T4 sequence (P41240 whole entry): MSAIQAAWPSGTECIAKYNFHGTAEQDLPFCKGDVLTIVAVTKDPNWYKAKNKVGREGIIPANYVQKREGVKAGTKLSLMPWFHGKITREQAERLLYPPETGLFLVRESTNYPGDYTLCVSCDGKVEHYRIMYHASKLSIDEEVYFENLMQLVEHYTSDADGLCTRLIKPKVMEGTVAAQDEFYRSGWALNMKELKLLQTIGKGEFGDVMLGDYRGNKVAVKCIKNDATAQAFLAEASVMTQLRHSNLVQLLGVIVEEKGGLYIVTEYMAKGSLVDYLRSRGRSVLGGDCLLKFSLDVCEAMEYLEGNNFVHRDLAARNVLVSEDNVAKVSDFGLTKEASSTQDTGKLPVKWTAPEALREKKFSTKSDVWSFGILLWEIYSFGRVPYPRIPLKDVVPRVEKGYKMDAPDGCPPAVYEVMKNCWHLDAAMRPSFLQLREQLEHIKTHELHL

| SMILES | remaining binding at 1 µM [1] [%] | remaining binding at 1 µM [2] [%] | remaining binding at 1 µM [3] [%] | remaining binding at 1 µM [4] [%] | remaining binding at 1 µM [5] [%] | remaining binding at 1 µM [6] [%] | remaining binding at 1 µM [7] [%] |
| --- | --- | --- | --- | --- | --- | --- | --- |
| Cc1ccc(C(=O)Nc2ccc(CN3CCN(C)CC3)c(C(F)(F)F)c2)cc1C#Cc1cnc2c(Nc3cnn(C)c3)cccn12 [Example 1, 4-methyl-3-((8-((1-methyl-1H-pyrazol-4-yl)amino)imidazo[1,2-a]pyridin-3-yl)ethynyl)-N-(4-((4-methylpiperazin-1-yl)methyl)-3-(trifluoromethyl)phenyl)benzamide] | 0 | 84 | 9 | 2 | 0 | 67 | 89 |
| Cc1cn(-c2cc(NC(=O)c3ccc(C)c(C#Cc4cnc5c(Nc6cnn(C)c6)cccn45)c3)cc(C(F)(F)F)c2)cn1 [Example 12, 4-methyl-N-(3-(4-methyl-1H-imidazol-1-yl)-5-(trifluoromethyl)phenyl)-3-((8-((1-methyl-1H-pyrazol-4-yl)amino)imidazo[1,2-a]pyridin-3-yl)ethynyl)benzamide] | 0 | 100 | 12 | 1 | 8 | 71 | 94 |
| Cc1ccc(NC(=O)C2(C(=O)Nc3ccc(F)cc3)CC2)cc1C#Cc1cnc2c(Nc3cnn(C(C)C)c3)cccn12 [Example 78] | 0 | 96 | 94 | 98 | 100 | 90 | 100 |
